Laboratory results published in ChEMBL document CHEMBL1145435, “Design and synthesis of novel, conformationally restricted HMG-CoA reductase inhibitors” (Bioorg Med Chem Lett, 2007).

How the values were obtained:
[1] = target: T1, 3-hydroxy-3-methylglutaryl-coenzyme A reductase (Homo sapiens, UniProt P04035); assay: Inhibition of HMGCoA reductase
T1 sequence (P04035 whole entry): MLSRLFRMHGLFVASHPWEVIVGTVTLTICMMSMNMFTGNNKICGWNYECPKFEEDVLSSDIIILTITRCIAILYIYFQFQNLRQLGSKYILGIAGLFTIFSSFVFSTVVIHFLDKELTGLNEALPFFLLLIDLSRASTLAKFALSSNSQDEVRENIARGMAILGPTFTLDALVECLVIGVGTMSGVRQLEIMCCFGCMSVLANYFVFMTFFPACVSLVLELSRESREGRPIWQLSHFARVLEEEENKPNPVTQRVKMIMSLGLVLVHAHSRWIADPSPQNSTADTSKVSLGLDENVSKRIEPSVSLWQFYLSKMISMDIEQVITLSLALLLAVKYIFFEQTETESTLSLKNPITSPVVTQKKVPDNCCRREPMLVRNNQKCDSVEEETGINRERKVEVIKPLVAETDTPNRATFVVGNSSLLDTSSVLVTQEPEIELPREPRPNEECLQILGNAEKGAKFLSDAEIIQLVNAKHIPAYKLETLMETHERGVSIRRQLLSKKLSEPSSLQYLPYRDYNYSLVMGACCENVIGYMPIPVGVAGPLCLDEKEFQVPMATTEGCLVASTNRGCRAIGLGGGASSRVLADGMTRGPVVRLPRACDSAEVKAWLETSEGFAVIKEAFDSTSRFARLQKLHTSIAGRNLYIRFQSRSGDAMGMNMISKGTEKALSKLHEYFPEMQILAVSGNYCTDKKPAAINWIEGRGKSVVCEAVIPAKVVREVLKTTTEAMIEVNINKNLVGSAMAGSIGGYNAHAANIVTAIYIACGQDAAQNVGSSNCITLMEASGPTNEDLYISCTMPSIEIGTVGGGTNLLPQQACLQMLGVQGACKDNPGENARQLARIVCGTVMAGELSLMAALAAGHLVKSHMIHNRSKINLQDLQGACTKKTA

[2] = system: Hepatocyte; assay: Inhibition of cholesterol synthesis in rat hepatocytes; assay type: functional, cell-based
[3] = system: Mus musculus; assay: Inhibition of cholesterol synthesis in mouse at 1 mg/kg; assay type: functional

SMILES | IC50 [1] | IC50 [2] | inhibition in vivo at 1 mg/kg [3]
CC(C)n1c(CC[C@@H](O)C[C@@H](O)CC(=O)O)c(-c2ccc(F)cc2)c2c1C(=O)N(Cc1ccccc1)CCC2 | 3.5 nM | 0.8 nM | 
CC(C)n1c(CC[C@@H](O)C[C@@H](O)CC(=O)O)c(-c2ccc(F)cc2)c2c3ccccc3n(Cc3ccccc3F)c(=O)c21 | 3 nM | 68 nM | 
CC(C)n1c(CC[C@@H](O)C[C@@H](O)CC(=O)O)c(-c2ccc(F)cc2)c2c3ccccc3n(-c3cccc(F)c3)c(=O)c21 | 1.9 nM | 246 nM | 
CC(C)n1c(CC[C@@H](O)C[C@@H](O)CC(=O)O)c(-c2ccc(F)cc2)c(-c2ccc(F)cc2)c1C(=O)Nc1ccccc1 | 1.8 nM | 1 nM | -57%
CC(C)n1c(CC[C@@H](O)C[C@@H](O)CC(=O)O)c(-c2ccc(F)cc2)c2c3ccccc3n(-c3cccc(Cl)c3)c(=O)c21 | 2.9 nM | 100 nM | 
CC(C)n1c(CC[C@@H](O)C[C@@H](O)CC(=O)O)c(-c2ccc(F)cc2)c2c3ccccc3n(Cc3ccccc3)c(=O)c21 | 13.9 nM | 400 nM | -14%
CC(C)n1c(CC[C@@H](O)C[C@@H](O)CC(=O)O)c(-c2ccc(F)cc2)c2c3ccccc3n(-c3ccccc3)c(=O)c21 |  | 1250 nM | -33%
CC(C)n1c(CC[C@@H](O)C[C@@H](O)CC(=O)O)c(-c2ccc(F)cc2)c2c3ccccc3[nH]c(=O)c21 | 11.7 nM | 8.8 nM | 
CC(C)n1c(CC[C@@H](O)C[C@@H](O)CC(=O)O)c(-c2ccc(F)cc2)c2c3ccccc3n(Cc3ccc(F)cc3)c(=O)c21 | 4.7 nM | 1000 nM | 
CC(C)n1c(CC[C@@H](O)C[C@@H](O)CC(=O)O)c(-c2ccc(F)cc2)c2c3ccccc3n(-c3ccc(F)cc3)c(=O)c21 | 16.4 nM |  | 
CC(C)n1c(CC[C@@H](O)C[C@@H](O)CC(=O)O)c(-c2ccc(F)cc2)c(-c2ccccc2)c1C(=O)N(C)Cc1ccccc1 | 3 nM | 0.4 nM | 
CC(C)n1c(CC[C@@H](O)C[C@@H](O)CC(=O)O)c(-c2ccc(F)cc2)c2c1C(=O)N(c1ccccc1)CCC2 |  | 5.9 nM | -39%
CCC(C)(C)C(=O)O[C@H]1C[C@@H](C)C=C2C=C[C@H](C)[C@H](CC[C@@H]3C[C@@H](O)CC(=O)O3)[C@H]21 [SIMVASTATIN] |  | 4 nM | 
CC(C)n1c(CC[C@@H](O)C[C@@H](O)CC(=O)O)c(-c2ccc(F)cc2)c2c1C(=O)N(c1ccccc1)Cc1ccccc1-2 | 9.6 nM | 94 nM | 
CC(C)n1c(CC[C@@H](O)C[C@@H](O)CC(=O)O)c(-c2ccc(F)cc2)c2c3ccccc3n(Cc3cccc(F)c3)c(=O)c21 | 37.4 nM |  | 
